According to ChEMBL document CHEMBL1201862, “PubChem BioAssay data set” (2004):
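Test compounds were applied to cells in 96-well plates for 48 hours at 5 doses. Abbreviation: GI50, concentration required for 50% inhibition of growth.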 Active and inactive are the calls of the source. Rule as the data show it: active = GI50 up to about 1.1 µM and inactive = higher.

Columns and labels:
Test in all cases: growth of human tumour cells (NCI), 48 h
[1] = test system: NCI-H460
[2] = test system: M14
[3] = test system: KM12
[4] = test system: A498
[5] = test system: UACC-62
[6] = test system: EKVX
[7] = test system: SK-MEL-5
[8] = test system: SN12C
[9] = test system: 786-0
[10] = test system: SF-268
[11] = test system: IGROV-1
[12] = test system: DLD-1
[13] = test system: SNB-19
[14] = test system: U-251
[15] = test system: RXF 393
[16] = test system: SNB-78
[17] = test system: SNB-75
[18] = test system: SK-OV-3

Measured: GI50

Cc1cc(O)c2c(c1)OC1(C)CCC3C(C)(C)CCCC34COC2C14 (stereo not drawn)
inactive: [1] 16.4 µM | [2] 14.4 µM | [3] 16.8 µM | [4] 13.2 µM | [5] 19.2 µM | [6] 11.9 µM | [7] 14.4 µM | [8] 16.7 µM | [9] 14.4 µM | [10] 13.6 µM | [11] 19.7 µM | [12] 20.4 µM | [13] 18.3 µM

COc1ccc(-c2cc(-c3cc(C)ccc3O)nc(O)n2)cc1
inactive: [14] 30.7 µM | [1] > 100 µM | [2] > 100 µM | [3] > 100 µM | [4] 74.6 µM | [15] 32.6 µM | [5] > 100 µM | [6] 7.11 µM | [16] 43.7 µM | [17] 26.2 µM | [8] > 100 µM | [9] 62.5 µM | [10] 80.9 µM | [11] > 100 µM | [12] > 100 µM | [13] 47 µM | [18] 44.4 µM

C[C@]12CCCC(=O)C1C[C@H](C(=O)O)CC2 (stereo partly drawn)
inactive: [14] > 100 µM | [1] > 100 µM | [2] > 100 µM | [3] > 100 µM | [4] > 100 µM | [5] > 100 µM | [17] > 100 µM | [8] > 100 µM | [9] > 100 µM | [10] > 100 µM | [11] > 100 µM | [12] > 100 µM | [13] > 100 µM | [18] > 100 µM

CC1=C(C)C(=O)C2=C(OCCCO2)C1=O
inactive: [14] > 100 µM | [1] > 10 µM | [2] 17 µM | [3] > 10 µM | [4] > 10 µM | [15] > 10 µM | [5] 18.1 µM | [6] 17.2 µM | [17] 23.8 µM | [8] > 10 µM | [9] 19.2 µM | [10] 18.3 µM | [11] 18.2 µM | [12] > 10 µM | [13] > 100 µM | [18] > 100 µM

Cc1cc2nc3c(C(OC4OC(CO)C(O)C(O)C4O)C(O)CO)nn(-c4ccccc4)c3nc2cc1C (stereo not drawn)
inactive: [14] > 100 µM | [1] > 100 µM | [2] > 100 µM | [3] > 100 µM | [4] > 100 µM | [15] > 100 µM | [5] > 100 µM | [6] > 100 µM | [16] > 100 µM | [17] 64 µM | [8] > 100 µM | [9] > 100 µM | [10] > 100 µM | [12] > 100 µM | [13] > 100 µM | [18] > 100 µM

N#C/C(c1nc2ccccc2[nH]1)=c1\s/c(=C/c2ccccc2)c(=O)n1-c1ccccc1
inactive: [14] > 100 µM | [1] 65.2 µM | [2] > 100 µM | [3] > 100 µM | [4] 65.5 µM | [5] > 100 µM | [6] > 100 µM | [17] > 100 µM | [7] 81.8 µM | [8] > 100 µM | [9] > 100 µM | [10] > 100 µM | [11] 2.9 µM | [12] > 100 µM | [13] > 100 µM | [18] > 100 µM

O=C(CSc1nnc(Cc2ccccc2)o1)Nc1ccccc1Cl
inactive: [14] > 100 µM | [1] > 100 µM | [2] > 100 µM | [3] > 100 µM | [4] > 100 µM | [5] > 100 µM | [16] > 100 µM | [7] > 100 µM | [8] > 100 µM | [9] > 100 µM | [10] > 100 µM | [11] > 100 µM | [12] > 100 µM | [13] > 100 µM | [18] > 100 µM

CN(C)C(=S)/N=c1\ss/c(=N/c2ccccc2)n1C
inactive: [14] 46.7 µM | [1] > 100 µM | [2] > 100 µM | [3] > 100 µM | [4] 28.9 µM | [15] 28.2 µM | [5] > 100 µM | [6] > 100 µM | [16] 32.4 µM | [17] 16.2 µM | [8] > 100 µM | [9] 22.6 µM | [10] 27.2 µM | [11] > 100 µM | [12] > 100 µM | [13] 58.3 µM | [18] 32.4 µM

O=[N+]([O-])c1ccc(OCCNc2cccc3ccccc23)cc1
inactive: [14] 94.6 µM | [1] 77.6 µM | [2] > 100 µM | [3] > 100 µM | [4] > 100 µM | [5] > 100 µM | [6] > 100 µM | [17] 89.7 µM | [7] 30.5 µM | [8] > 100 µM | [9] > 100 µM | [10] > 100 µM | [11] > 100 µM | [12] 37.9 µM | [13] > 100 µM | [18] > 100 µM

O=C(Nc1nc2ccccc2n1Cc1ccc(Cl)cc1)NC12CC3CC(CC(C3)C1)C2
inactive: [14] 20.7 µM | [1] 20.1 µM | [2] 25 µM | [3] 53.8 µM | [15] 20.5 µM | [5] 17.3 µM | [6] 32.7 µM | [17] 7.74 µM | [7] 33.3 µM | [8] 28.4 µM | [9] 20.5 µM | [10] 4.12 µM | [11] 41 µM | [12] 36.2 µM | [13] 24.9 µM | [18] 16.2 µM

N#C/N=C(\NCCc1c[nH]c2ccccc12)NCc1ccccc1
inactive: [14] 35.2 µM | [1] 26.8 µM | [2] 51.1 µM | [3] 36.4 µM | [15] > 100 µM | [5] 53.6 µM | [6] 45.6 µM | [16] > 100 µM | [17] 43.8 µM | [7] 24.4 µM | [8] 93.8 µM | [9] 25.5 µM | [10] > 100 µM | [11] > 100 µM | [12] 94.8 µM | [13] 68.9 µM | [18] > 100 µM

CSC1(C)CC2C(CC1N1CCOCC1)C2(C)C (stereo not drawn)
inactive: [14] > 100 µM | [1] > 100 µM | [2] > 100 µM | [3] > 100 µM | [16] > 100 µM | [17] > 100 µM | [7] > 100 µM | [8] > 100 µM | [9] > 100 µM | [10] > 100 µM | [11] > 100 µM | [12] > 100 µM | [18] > 100 µM

O=c1c(O)cccn1C1OC(CO)C(O)C1O (stereo not drawn)
inactive: [14] > 100 µM | [1] > 100 µM | [2] > 100 µM | [3] > 100 µM | [4] > 100 µM | [15] > 100 µM | [5] > 100 µM | [6] > 100 µM | [16] > 100 µM | [17] > 100 µM | [8] > 100 µM | [9] > 100 µM | [10] > 100 µM | [11] > 100 µM | [12] > 100 µM | [13] > 100 µM | [18] > 100 µM
